In PMC10380083, “Synthesis of Prostate-Specific Membrane Antigen-Targeted Bimodal Conjugates of Cytotoxic Agents and Antiandrogens and Their Comparative Assessment with Monoconjugates” (International Journal of Molecular Sciences, 2023):
*1 amine or outer side, *2 acyl side, *3 side chain or, on linkers, in order; H or OH if unused. Where a SMILES comes first, the peptide text is derived from it. [ ]: non-standard residue; d: D form. The star is where a group is joined. GluureaLys(ε-3-ClBenzyl) = O=C(O)CC[C@H](NC(=O)N[C@@H](CCCCN(Cc1cccc(Cl)c1)*)C(=O)O)C(=O)O; Dolaproine = CO[C@@H]([C@@H]1CCCN1)[C@@H](C)C(=O)O; Dil = CC[C@H](C)[C@H](NC)[C@@H](CC(=O)O)OC; X2 = O=C(CCCc1cn(CCCN[*:1])nn1)[*:2]; PABC = O=C(OCc1ccc(N[*:1])cc1)[*:2]; X1 = C[C@@H](N*)[C@@H](O)c1ccccc1; Cit = NC(=O)NCCC[C@H](N)C(=O)O; Suc = O=C(CCC(=O)[*:2])[*:1]; NMeV = CN[C@H](C(=O)O)C(C)C; Ahx = NCCCCCC(=O)O

Assays:
LNCaP cells = assay: In vitro cytotoxicity, MTS assay, LNCaP; format: cell-based; conditions: 72 h, high PSMA expression, range 0.5 to 800 nM, triplicates
Procedure: (§1) The resulting bimodal conjugates were tested in vitro on three different PCa cell lines. We used LNCaP cells with high PSMA expression, 22Rv1 cells with moderate PSMA expression and PC-3 cells with extremely low PSMA expression. Different levels of PSMA expression in 22Rv1 and LNCaP cell lines allows evaluation of the effect of the level of expression on the toxicity of the target drugs. PSMA-negative cell line PC-3 allows a qualitative assessment of non-specific toxicity of the obtained compounds.
(§2) The cytotoxicity of the investigated substances was tested using the MTS assay with some modifications. Cells were seeded in the 96-well plates (Corning, New York, NY, USA) at concentration of 7000 cells per well for PC-3 culture, 12,000 cells per well for LNCaP cells and 20,000 cells per well for 22Rv1 line. The cells were counted using the automatic cell counter EVE. All cell lines were purchased from the American Type Culture Collection (ATCC, Manassas, VA, USA). After 1 day, serial dilutions of tested substances were added to the cells. Cell culture medium with addition of DMSO in appropriate concentrations was used as a negative control. DMSO (30%) was added in culture medium as a positive control. Cells were then incubated during 72 h at 37 °C and 5% CO2. Later, the culture medium from each well was removed and 20 μL of MTS reagent (CellTiter 96 AQueous Non-Radioactive Cell Proliferation Assay, Promega) were added to each well with 100 μL of new culture medium. After 4 h incubation at 37 °C in darkness, the absorbance of the solution was measured at 490 nm wavelength using Thermo Scientific Multiskan GO spectrometer. Cell viability was calculated as a percentage compared to control cells. The absorbance of MTS reagent in culture medium without cells was taken as zero. […] Experiments were performed in triplicates. Data were analyzed using Prism 9—GraphPad version 9.2.0 software. p values < 0.05 were considered significant.

22Rv1 cells = assay: In vitro cytotoxicity, MTS assay, 22Rv1; format: cell-based, human; conditions: 72 h, moderate PSMA expression, range 0.5 to 800 nM, triplicates
Procedure: as §1, §2

PC-3 cells = assay: In vitro cytotoxicity, MTS assay, PC-3; format: cell-based, human; conditions: 72 h, extremely low PSMA expression, range 0.5 to 800 nM, triplicates
Procedure: as §1, §2

Row | Structure (SMILES) | CC50, LNCaP (LNCaP cells) | CC50, 22Rv1 (22Rv1 cells) | CC50, PC-3 (PC-3 cells)
1 | CC[C@H](C)[C@@H]([C@@H](CC(=O)N1CCC[C@H]1[C@H](OC)[C@@H](C)C(=O)N[C@H](C)[C@@H](O)c1ccccc1)OC)N(C)C(=O)[C@@H](NC(=O)[C@H](C(C)C)N(C)C(=O)OCc1ccc(NC(=O)[C@H](CCCNC(N)=O)NC(=O)[C@@H](NC(=O)CCCc2cn(CCCNC(=O)[C@H](Cc3ccc(O)cc3)NC(=O)[C@H](Cc3ccccc3)NC(=O)CCC(=O)NCCCCCC(=O)N(CCCC[C@H](NC(=O)N[C@@H](CCC(=O)O)C(=O)O)C(=O)O)Cc3cccc(Cl)c3)nn2)C(C)C)cc1)C(C)C [I, reference compound] ({GluureaLys(ε-3-ClBenzyl)-Ahx-Suc}-FY[X2]V[Cit][PABC][NMeV]V[Dil][Dolaproine]-X1) | 77.7 ± 1.3 nM | 78.5 ± 0.8 nM | >800 nM
2 | CC[C@H](C)[C@@H]([C@@H](CC(=O)N1CCC[C@H]1[C@H](OC)[C@@H](C)C(=O)N[C@H](C)[C@@H](O)c1ccccc1)OC)N(C)C(=O)[C@@H](NC(=O)[C@@H](NC)C(C)C)C(C)C [MMAE, Monomethyl Auristatin E, reference compound] (H-[NMeV]V[Dil][Dolaproine]-X1) | 0.69 ± 0.1 nM | 0.42 ± 0.2 nM | >800 nM
